The target in the experiment is T1, RXFP1 (Homo sapiens, UniProt Q9HBX9).
T1 construct: OVCAR5 cells expressing endogenous RXFP1; endogenous in cells; host or cells: OVCAR5 cells
T1 sequence (Q9HBX9 1-757): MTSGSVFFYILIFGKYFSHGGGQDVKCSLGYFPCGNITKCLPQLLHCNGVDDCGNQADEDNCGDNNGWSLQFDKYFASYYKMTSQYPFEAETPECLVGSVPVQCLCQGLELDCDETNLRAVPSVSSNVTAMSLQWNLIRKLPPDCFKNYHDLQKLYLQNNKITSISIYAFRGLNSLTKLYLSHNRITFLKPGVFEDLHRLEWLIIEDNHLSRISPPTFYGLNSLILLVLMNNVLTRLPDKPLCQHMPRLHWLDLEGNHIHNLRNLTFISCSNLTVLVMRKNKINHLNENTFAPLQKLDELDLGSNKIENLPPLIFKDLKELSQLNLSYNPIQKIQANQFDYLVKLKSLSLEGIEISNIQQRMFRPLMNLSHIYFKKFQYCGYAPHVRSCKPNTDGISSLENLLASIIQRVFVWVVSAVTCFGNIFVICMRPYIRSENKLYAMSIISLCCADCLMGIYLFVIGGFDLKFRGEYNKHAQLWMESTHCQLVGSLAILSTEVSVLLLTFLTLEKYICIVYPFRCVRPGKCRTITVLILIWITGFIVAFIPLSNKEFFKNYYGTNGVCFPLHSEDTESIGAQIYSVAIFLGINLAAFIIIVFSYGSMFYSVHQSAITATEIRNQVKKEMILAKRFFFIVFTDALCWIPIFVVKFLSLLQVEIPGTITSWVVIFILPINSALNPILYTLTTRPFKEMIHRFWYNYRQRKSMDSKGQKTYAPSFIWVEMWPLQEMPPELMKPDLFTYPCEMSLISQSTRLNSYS
Briefly: OVCAR5 cAMP assay (HTRF), RXFP1 agonist activity. In kind it is cell-based. The settings on record: for Emax: OVCAR-5, maximal cAMP relative to H2-relaxin maximum (100%), read-out: EMax, OVCAR 5 cells (cAMP). The source says: OVCAR5 cells expressing endogenous RXFP1 were used to test RXP1 agonist properties of peptides of the invention, and in particular of the peptides of sequence SEQ ID NO: 1-193.
Since RXFP1 is a Gs coupled GPCR, cAMP was used as readout of RXFP1 activation.
Isobutyl Methyl Xanthine (IBMX) was used to inhibit phosphodiesterase activity facilitating cAMP measurements. HTRF (Homogenous Time Resolved Fluorescence) technology was used to detect cAMP due to its great sensitivity.
In summary, OVCAR5 were grown in regular medium (RPMI) containing 10% fetal calf serum (FCS) and 1% antibiotics (penicillin/streptomycin).
Before the experiments, cells were detached with accutase and incubated for 40 minutes at 37° C. with 1 mM (3-isobutyl-1-methylxanthine) IBMX.
Cells were then distributed in 384 black well plates containing increasing concentrations of the different peptides in a fix volume of medium (without FCS).
After an incubation of 30 min at 37° C. in an humid incubator in 5% CO2, the reaction was stopped by adding a fixed volume of a solution containing a lysis buffer and cAMP-D2 (cAMP labeled with the dye d2) and the anti cAMP antibody linked to Europium and used for cAMP detection.
Readout of the experiment were performed on a fluorimeter allowing HTRF measurement. Activation curves were generated by plotting the intracellular value of cAMP versus log 10 of the compound concentration.
The 50% activation concentration (EC50) was calculated by nonlinear regression using the sigmoidal dose-response (variable slope) equation with Prism 5 software.
Emax % is determined as the maximal intracellular value of cAMP for test compound (upper limit of cAMP vs concentration curve) divided by the maximal intracellular value of cAMP for H2-relaxin determined in the same test occasion multiplied by 100. Emax %=100×[cAMPtest cpd]/[cAMPH2-RlX]
(In general: Cyclic AMP is a second messenger, typically raised through Gs and lowered through Gi signalling.)

Molecules are shown by their SMILES. *1 amine or outer side, *2 acyl side, *3 side chain or, on linkers, in order; H or OH if unused. Where a SMILES comes first, the peptide text is derived from it. Side-chain parts run from the residue outwards. [ ]: non-standard residue; d: D form. The star is where a group is joined. X5 = CCCCCCCCCCCCCCCC(=O)N[C@@H](CCC(=O)NCCCC[C@H](NC(=O)CC[C@H](NC(=O)CC[C@H](NC(=O)CC[C@H](NC(=O)CCC(=O)NCCCOCCOCCOCCCNC(=O)CCC(=O)NCCCOCCOCCOCCCN*)C(=O)O)C(=O)O)C(=O)O)C(N)=O)C(=O)O; PEG12 = NCCOCCOCCOCCOCCOCCOCCOCCOCCOCCOCCOCCOCCC(=O)O; γGlu = O=C(O)[C@H](CCC(=O)[*:2])N[*:1]; Stearoyl = CCCCCCCCCCCCCCCCCC(=O)*; Palmitoyl = CCCCCCCCCCCCCCCC(=O)*; αMeK = C[C@](N)(CCCCN)C(=O)O; Nle = CCCC[C@H](N)C(=O)O; AEEA = NCCOCCOCC(=O)O; Aib = CC(C)(N)C(=O)O

As usually defined, the Emax is the greatest response seen or fitted, relative to the assay's reference. On to `CCCCCCCCCCCCCCCC(=O)N[C@@H](CCC(=O)N[C@@H](CCC(=O)N[C@@H](CCC(=O)NCCOCCOCC(=O)NCCOCCOCC(=O)NCCCC[C@H](NC(=O)[C@H](CCCCN)NC(=O)[C@H](CCCNC(=N)N)NC(=O)C(C)(C)NC(=O)[C@H](CO)NC(=O)[C@H](Cc1c[nH]c2ccccc12)NC(=O)[C@@H](NC(=O)[C@H](CO)NC(=O)[C@H](CCCC)NC(=O)CNC(=O)[C@H](CCC(=O)O)NC(=O)C(C)(C)NC(=O)C(C)(C)NC(=O)[C@@H](NC(=O)[C@H](CCCCNC(C)=O)NC(=O)[C@H](C)NC(=O)[C@H](CCCNC(=N)N)NC(=O)[C@@H](NC(=O)[C@H](CCCCN)NC(=O)[C@H](CCC(=O)O)NC(=O)[C@H](CCCNC(=N)N)NC(=O)CNC(=O)[C@H](CCC(=O)O)NC(=O)[C@H](CC(C)C)NC(C)=O)C(C)C)[C@@H](C)CC)[C@@H](C)O)C(N)=O)C(=O)O)C(=O)O)C(=O)O` [compound 59] (Ac-LEGREKVRAK(Ac)I[Aib][Aib]EG[Nle]STWS[Aib]RKK([AEEA-AEEA-γGlu-γGlu-γGlu-Palmitoyl])-NH2), for which the Emax turned out to be 85%.

Take `CCCCCCCCCCCCCCCCCC(=O)N[C@@H](CCC(=O)N[C@@H](CCC(=O)N[C@@H](CCC(=O)NCCCC[C@H](NC(=O)CCOCCOCCOCCOCCOCCOCCOCCOCCOCCOCCOCCOCCNC(=O)[C@H](CCCCNC(C)=O)NC(=O)[C@H](CCCCN)NC(=O)[C@H](CCCNC(=N)N)NC(=O)C(C)(C)NC(=O)[C@H](CO)NC(=O)[C@H](Cc1c[nH]c2ccccc12)NC(=O)[C@@H](NC(=O)[C@H](CO)NC(=O)[C@H](CCCC)NC(=O)CNC(=O)[C@H](CCC(=O)O)NC(=O)C(C)(C)NC(=O)C(C)(C)NC(=O)[C@@H](NC(=O)[C@H](CCCCNC(C)=O)NC(=O)C(C)(C)NC(=O)[C@H](CCCNC(=N)N)NC(=O)[C@@H](NC(=O)[C@H](CCCCN)NC(=O)[C@H](CCC(=O)O)NC(=O)[C@H](CCCNC(=N)N)NC(=O)CNC(=O)[C@H](CCC(=O)O)NC(=O)[C@H](CC(C)C)NC(C)=O)C(C)C)[C@@H](C)CC)[C@@H](C)O)C(N)=O)C(=O)O)C(=O)O)C(=O)O` [compound 36] (Ac-LEGREKVR[Aib]K(Ac)I[Aib][Aib]EG[Nle]STWS[Aib]RKK(Ac)[PEG12]K([γGlu-γGlu-γGlu-Stearoyl])-NH2): the Emax is 84%.

For the molecule `CCCCCCCCCCCCCCCCCC(=O)N[C@@H](CCC(=O)N[C@@H](CCC(=O)N[C@@H](CCC(=O)N[C@@H](CCC(=O)NCCOCCOCC(=O)NCCOCCOCC(=O)NCCOCCOCC(=O)NCCOCCOCC(=O)NCCCC[C@H](NC(=O)[C@H](CCCCNC(C)=O)NC(=O)[C@H](CCCCN)NC(=O)[C@H](CCCNC(=N)N)NC(=O)C(C)(C)NC(=O)[C@H](CO)NC(=O)[C@H](Cc1c[nH]c2ccccc12)NC(=O)[C@@H](NC(=O)[C@H](CO)NC(=O)[C@H](CCC(N)=O)NC(=O)CNC(=O)[C@H](CCC(=O)O)NC(=O)C(C)(C)NC(=O)C(C)(C)NC(=O)[C@@H](NC(=O)[C@H](CCCCNC(C)=O)NC(=O)[C@H](C)NC(=O)[C@H](CCCNC(=N)N)NC(=O)[C@@H](NC(=O)[C@H](CCCCN)NC(=O)[C@H](CCC(=O)O)NC(=O)[C@H](CCCNC(=N)N)NC(=O)CNC(=O)[C@H](CCC(=O)O)NC(=O)[C@H](CC(C)C)NC(C)=O)C(C)C)[C@@H](C)CC)[C@@H](C)O)C(N)=O)C(=O)O)C(=O)O)C(=O)O)C(=O)O` [compound 180] (Ac-LEGREKVRAK(Ac)I[Aib][Aib]EGQSTWS[Aib]RKK(Ac)K([AEEA-AEEA-AEEA-AEEA-γGlu-γGlu-γGlu-γGlu-Stearoyl])-NH2), the Emax was determined as 84%.

For `CCCCCCCCCCCCCCCC(=O)N[C@@H](CCC(=O)N[C@@H](CCC(=O)N[C@@H](CCC(=O)NCCCC[C@H](NC(=O)COCCOCCNC(=O)COCCOCCNC(=O)COCCOCCNC(=O)[C@H](CCCCNC(C)=O)NC(=O)[C@H](CCCCN)NC(=O)[C@H](CCCNC(=N)N)NC(=O)C(C)(C)NC(=O)[C@H](CO)NC(=O)[C@H](Cc1c[nH]c2ccccc12)NC(=O)[C@@H](NC(=O)[C@H](CO)NC(=O)[C@H](CCCC)NC(=O)CNC(=O)[C@H](CCC(=O)O)NC(=O)C(C)(C)NC(=O)C(C)(C)NC(=O)[C@@H](NC(=O)[C@H](CCCCNC(C)=O)NC(=O)[C@H](C)NC(=O)[C@H](CCCNC(=N)N)NC(=O)[C@@H](NC(=O)[C@H](CCCCN)NC(=O)[C@H](CCC(=O)O)NC(=O)[C@H](CCCNC(=N)N)NC(=O)CNC(=O)[C@H](CCC(=O)O)NC(=O)[C@H](CC(C)C)NC(C)=O)C(C)C)[C@@H](C)CC)[C@@H](C)O)C(N)=O)C(=O)O)C(=O)O)C(=O)O` [compound 114] (Ac-LEGREKVRAK(Ac)I[Aib][Aib]EG[Nle]STWS[Aib]RKK(Ac)[AEEA][AEEA][AEEA]K([γGlu-γGlu-γGlu-Palmitoyl])-NH2), the Emax was 90%.

Consider `CCCCCCCCCCCCCCCC(=O)N[C@@H](CCC(=O)N[C@@H](CCC(=O)N[C@@H](CCC(=O)NCCCC[C@H](NC(=O)[C@H](CCCCN)NC(=O)[C@H](CCCCN)NC(=O)[C@H](CCCNC(=N)N)NC(=O)C(C)(C)NC(=O)[C@H](CO)NC(=O)[C@H](Cc1c[nH]c2ccccc12)NC(=O)[C@@H](NC(=O)[C@H](CO)NC(=O)[C@H](CCCC)NC(=O)CNC(=O)[C@H](CCC(=O)O)NC(=O)C(C)(C)NC(=O)C(C)(C)NC(=O)[C@@H](NC(=O)[C@H](C)NC(=O)[C@H](C)NC(=O)[C@H](CCCNC(=N)N)NC(=O)[C@@H](NC(=O)[C@H](CCCCN)NC(=O)[C@H](CCC(=O)O)NC(=O)[C@H](CCCNC(=N)N)NC(=O)CNC(=O)[C@H](CCC(=O)O)NC(=O)[C@H](CC(C)C)NC(=O)[C@H](CCC(=O)O)NC(C)=O)C(C)C)[C@@H](C)CC)[C@@H](C)O)C(N)=O)C(=O)O)C(=O)O)C(=O)O` [compound 6] (Ac-ELEGREKVRAAI[Aib][Aib]EG[Nle]STWS[Aib]RKKK([γGlu-γGlu-γGlu-Palmitoyl])-NH2), for which the Emax came to 100%.

As a reminder, the EC50 is the concentration giving half of the maximal effect. Turning to `CCCCCCCCCCCCCCCC(=O)N[C@@H](CCC(=O)NCCCC[C@H](NC(=O)CC[C@H](NC(=O)CC[C@H](NC(=O)CC[C@H](NC(=O)CCC(=O)NCCCOCCOCCOCCCNC(=O)CCC(=O)NCCCOCCOCCOCCCNC(=O)[C@H](CCCCNC(C)=O)NC(=O)[C@H](CCCCN)NC(=O)[C@H](CCCNC(=N)N)NC(=O)[C@](C)(CCCCN)NC(=O)[C@H](CO)NC(=O)[C@H](Cc1ccccc1)NC(=O)[C@@H](NC(=O)[C@H](CO)NC(=O)[C@H](CCCC)NC(=O)CNC(=O)[C@H](CCC(=O)O)NC(=O)C(C)(C)NC(=O)C(C)(C)NC(=O)[C@@H](NC(=O)[C@H](CCCCNC(C)=O)NC(=O)[C@H](C)NC(=O)[C@H](CCCNC(=N)N)NC(=O)[C@@H](NC(=O)[C@H](CCCCN)NC(=O)[C@H](CCC(=O)O)NC(=O)[C@H](CCCNC(=N)N)NC(=O)CNC(=O)[C@H](CCC(=O)O)NC(=O)[C@H](CC(C)C)NC(C)=O)C(C)C)[C@@H](C)CC)[C@@H](C)O)C(=O)O)C(=O)O)C(=O)O)C(N)=O)C(=O)O` [compound 146] (Ac-LEGREKVRAK(Ac)I[Aib][Aib]EG[Nle]STFS[αMeK]RKK(Ac)-X5), the Emax turned out to be 89%. Under “OVCAR5 cells, cAMP HTRF, read-out: EC50 (nM), OVCAR 5 cells (cAMP)”, the EC50 was found to be 0.02 nM.

As to `CCCCCCCCCCCCCCCC(=O)N[C@@H](CCC(=O)N[C@@H](CCC(=O)N[C@@H](CCC(=O)NCCCC[C@H](NC(=O)COCCOCCNC(=O)COCCOCCNC(=O)[C@H](CCCCN)NC(=O)[C@H](CCCNC(=N)N)NC(=O)C(C)(C)NC(=O)[C@H](CO)NC(=O)[C@H](Cc1c[nH]c2ccccc12)NC(=O)[C@@H](NC(=O)[C@H](CO)NC(=O)[C@H](CCCC)NC(=O)CNC(=O)[C@H](CCC(=O)O)NC(=O)C(C)(C)NC(=O)C(C)(C)NC(=O)[C@@H](NC(=O)[C@H](CCC(N)=O)NC(=O)[C@H](C)NC(=O)[C@H](CCCNC(=N)N)NC(=O)[C@@H](NC(=O)[C@H](CCCCN)NC(=O)[C@H](CCC(=O)O)NC(=O)[C@H](CCCNC(=N)N)NC(=O)CNC(=O)[C@H](CCC(=O)O)NC(=O)[C@H](CC(C)C)NC(C)=O)C(C)C)[C@@H](C)CC)[C@@H](C)O)C(N)=O)C(=O)O)C(=O)O)C(=O)O` [compound 11] (Ac-LEGREKVRAQI[Aib][Aib]EG[Nle]STWS[Aib]RK[AEEA][AEEA]K([γGlu-γGlu-γGlu-Palmitoyl])-NH2), the Emax came out at 89%.

Source of the values: patent US10988523B2, “Modified lipidated Relaxin B chain peptides and their therapeutic use” (Sanofi, priority 2018, dated 2021).
